Experimental data reported in patent US20110039784A1, “COMPOSITION FOR TREATMENT OF ERECTILE DYSFUNCTION” (SUNGKYUNKWAN UNIVERSITY Foundation for Corporate …, priority 2009, published 2011).
Residue numbers refer to the chain shown, from its start. Ends that are not written are not given here.

Tests used:
TRPC6 ion channel [1] = target: T1, TRPC6 ion channel (Mus musculus, UniProt Q61143); test: Whole-cell patch clamp in HEK 293 cells transfected with wild-type TRPC6; format: cell-based; conditions: for whole-cell current at −100 mV: TRPC6-transfected HEK cells, n=5; for change of whole-cell current on application: membrane potential held at −60 mV, symmetrical 140 mM Cs, 200 μM PE or 100 μM CCh
T1 construct: expressed in transfected cells; host or cells: HEK 293
T1 sequence (Q61143 1-930): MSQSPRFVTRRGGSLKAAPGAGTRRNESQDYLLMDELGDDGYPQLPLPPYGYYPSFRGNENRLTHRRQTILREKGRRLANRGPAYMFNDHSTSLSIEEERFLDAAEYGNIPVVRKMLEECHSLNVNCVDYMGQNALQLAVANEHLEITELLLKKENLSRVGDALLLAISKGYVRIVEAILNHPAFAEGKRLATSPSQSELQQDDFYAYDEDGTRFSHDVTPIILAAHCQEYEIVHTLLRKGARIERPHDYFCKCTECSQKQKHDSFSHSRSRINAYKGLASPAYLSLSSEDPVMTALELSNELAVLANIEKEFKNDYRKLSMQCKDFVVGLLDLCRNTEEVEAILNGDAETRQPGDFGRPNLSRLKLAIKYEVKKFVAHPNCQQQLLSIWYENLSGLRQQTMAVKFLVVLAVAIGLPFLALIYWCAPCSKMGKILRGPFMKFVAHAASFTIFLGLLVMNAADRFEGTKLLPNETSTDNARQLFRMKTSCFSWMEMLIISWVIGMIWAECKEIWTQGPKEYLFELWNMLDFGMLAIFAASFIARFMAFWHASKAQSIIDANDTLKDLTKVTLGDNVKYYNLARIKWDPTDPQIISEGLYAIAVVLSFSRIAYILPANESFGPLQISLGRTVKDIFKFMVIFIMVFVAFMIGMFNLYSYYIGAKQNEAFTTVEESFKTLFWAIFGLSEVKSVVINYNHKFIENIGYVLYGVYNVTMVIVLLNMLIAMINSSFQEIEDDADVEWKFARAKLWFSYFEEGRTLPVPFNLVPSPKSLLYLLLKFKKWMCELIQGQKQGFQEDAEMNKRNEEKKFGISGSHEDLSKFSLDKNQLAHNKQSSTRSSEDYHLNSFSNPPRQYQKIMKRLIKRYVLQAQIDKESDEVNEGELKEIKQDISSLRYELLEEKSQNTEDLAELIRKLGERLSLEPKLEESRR
Description: The physiological function of the TRPC6 ion channel was examined in HEK cells which are free of ion channels. In this regard, GFP-TRPC6 pcDNA was transfected into HEK cells using a liposome and expressed therein. After the membrane potential was held at −60 mV, whole-cell currents were recorded in symmetrical 140 mM Cs conditions. […] At −100 mV, the current was −112.0±18.1 pA (n=5) in a 140 mM extracellular Cs condition, −90.0±15.0 pA (n=5) after adding 200 μM PE, and −460±169.5 pA (n=5) after adding 100 μM CCh. […] The PE/CCh-induced current was obtained after leak subtraction was performed (FIG. 3C).

maxi-K ion channel [2] = test: Whole-cell patch clamp in human corporal smooth muscle cells expressing rslo gene; format: cell-based, rat; conditions: rslo-expressed human corporal smooth muscle cells
Text: As described with HEK cells, the rslo pcDNA was expressed. The ion channels were examined for activity using a whole-cell patch clamp technique. Under the condition of a pipette solution having a calcium concentration of pCa 6.5, the current was 60.1±7.2 pA/pF (n=22) at a membrane potential of +60 mV in the rslo-expressed cells, which increased in outward current four-fold compared to that of control (16.4±2 pA/pF n=9) (FIG. 9A). Under the condition of an intracellular calcium concentration of pCa 7, the current was 12.8±2 pA/pF (+60 mV, n=9) in the control and 38.1±7 pA/pF (+60 mV, n=13) in the rslo-expressed cells (FIG. 9B). […] The current-voltage (I-V) relationship was similar to that recorded in the HEK cells.

maxi-K ion channel [3] = target: T2, maxi-K ion channel (Rattus norvegicus, UniProt Q62976); test: Whole-cell patch clamp in HEK 293 cells expressing rslo gene; format: cell-based; conditions: rslo-expressed HEK cells
T2 construct: GFP; expressed in transfected cells; host or cells: HEK 293
T2 sequence (Q62976 whole entry): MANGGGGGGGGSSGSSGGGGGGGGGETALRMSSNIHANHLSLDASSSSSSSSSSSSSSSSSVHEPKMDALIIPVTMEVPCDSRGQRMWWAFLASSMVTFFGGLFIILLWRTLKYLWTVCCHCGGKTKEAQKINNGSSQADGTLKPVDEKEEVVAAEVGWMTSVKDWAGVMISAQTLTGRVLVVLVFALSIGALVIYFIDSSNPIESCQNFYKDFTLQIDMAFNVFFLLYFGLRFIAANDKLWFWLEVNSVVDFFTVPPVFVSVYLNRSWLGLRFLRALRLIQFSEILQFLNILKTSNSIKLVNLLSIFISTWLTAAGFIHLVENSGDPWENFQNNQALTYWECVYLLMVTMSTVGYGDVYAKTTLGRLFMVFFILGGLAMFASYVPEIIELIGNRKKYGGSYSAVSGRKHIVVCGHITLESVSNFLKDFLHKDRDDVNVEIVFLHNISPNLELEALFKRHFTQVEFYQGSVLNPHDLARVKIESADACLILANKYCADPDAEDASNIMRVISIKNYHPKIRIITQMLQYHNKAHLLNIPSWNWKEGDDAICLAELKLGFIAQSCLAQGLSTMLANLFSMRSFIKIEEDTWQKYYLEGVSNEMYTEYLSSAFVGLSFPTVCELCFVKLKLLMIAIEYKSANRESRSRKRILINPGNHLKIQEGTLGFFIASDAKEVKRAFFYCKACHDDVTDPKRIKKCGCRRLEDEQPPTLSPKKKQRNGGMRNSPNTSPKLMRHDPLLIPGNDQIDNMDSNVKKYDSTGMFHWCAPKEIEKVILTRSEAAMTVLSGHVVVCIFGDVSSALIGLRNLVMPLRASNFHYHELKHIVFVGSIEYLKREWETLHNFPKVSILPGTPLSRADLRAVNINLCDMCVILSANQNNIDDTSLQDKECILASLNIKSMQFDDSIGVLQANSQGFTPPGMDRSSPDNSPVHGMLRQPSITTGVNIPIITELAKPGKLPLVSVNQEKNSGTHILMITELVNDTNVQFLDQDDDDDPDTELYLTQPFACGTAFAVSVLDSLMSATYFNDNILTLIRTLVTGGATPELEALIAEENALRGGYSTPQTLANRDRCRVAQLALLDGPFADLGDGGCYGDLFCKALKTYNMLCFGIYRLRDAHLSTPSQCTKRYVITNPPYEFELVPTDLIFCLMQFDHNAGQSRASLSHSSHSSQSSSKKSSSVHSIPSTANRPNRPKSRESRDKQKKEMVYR
Text: The maxi-K ion channel is known to play an important role in reducing the contraction of smooth muscle responsible for the modulation of penile erection and relaxation. Together with GFP, the α-subunit (rSlo) coding sequence of calcium-dependent potassium ion channel cloned from the rat brain was subcloned into pcDNA3.1(+). After the expression of rSlo gene in HEK cells, green-fluorescent cells were selected under a mercury lamp light and observed for the electrophysiological properties of the ion channels using a whole-cell patch clamp technique. Cells were used within 24˜48 hrs after expression. […] At an intracellular calcium level of pCa 7, the current was read 10.4±3.2 pA/pF (+60 mV, n=6) in the control and 100.5±15.4 pA/pF (n=6) in the rslo-expressed cells (FIG. 8B).

[4] = test system: corporal smooth muscle cells; test: Fura-2 intracellular calcium level in cultured corporal smooth muscle cells, ET-1 induced; format: cell-based, human; conditions: control corporal smooth muscle cells, n=3
Description: After fura-2 was loaded thereto, cultured corporal smooth muscle cells were measured for intracellular calcium levels. The extracellular addition of 50 nM endothelin-1 induced an increase in intracellular calcium level, with the separation of an initial increasing phase and a late constant phase (FIG. 7A).
Between the TRPC6 cDNA-transfected cells and the control cells, there are little differences in the initial phase. […] Intracellular calcium levels were also measured in the corporal smooth muscle cells where the dominant negative form of TRPC6 was expressed. […] Collectively, F340/380, accounting for ET-1-induced calcium increase, was measured to be 1.47±0.03 (n=3) in corporal smooth muscle cells (control), 1.53±0.09 (n=3) in corporal smooth muscle cells where TRPC6 was overexpressed, and 0±0 (n=3) in corporal smooth muscle cells where the dominant negative form of TRPC6 was expressed (FIG. 7D).

TRPC6 ion channel [5] = target: T3, TRPC6 ion channel (Mus musculus, UniProt Q61143); test: Whole-cell patch clamp in human corporal smooth muscle cells transfected with wild-type or dominant negative TRPC6; format: cell-based; conditions: after ET-1, 1 mM La^3+
T3 construct: expressed in transfected cells; host or cells: human corporal smooth muscle cells
T3 sequence (Q61143 1-930 A105V/R114W/A184S/Y371D/R436P/G437R/T905S): T1 sequence (Q61143 1-930) with A105V, R114W, A184S, Y371D, R436P, G437R, T905S
Description: As described with HEK cells, the wild-type TRPC6 cDNA was expressed. After being selected, green-fluorescent cells were examined for the activity of the ion channel using a whole-cell patch clamp technique. At the −60 mV holding membrane potential with the external solution changed from Na-rich normal tyrode solution to 140 mM Cs, the inward current was increased; whereas no currents changed upon external treatment with ET-1, a typical inducer of smooth muscle contraction. At −100 mV, the current was −535.9±162.4 pA (n=5) in 140 mM extracellular Cs, and −462.1±150.5 pA (n=5) after adding 100 nM ET-1. The current-voltage (I-V) relationship of corporal smooth muscle cells was similar to that of HEK cells activated by CCh. […] (FIG. 4)
For genetic regulation of the TRPC6 ion channel in corporal smooth muscle cells, the cells transfected with the dominant negative form of the TRPC6 ion channel were examined for electrophysiological function.

CNC[C@H](O)c1cccc(O)c1 [PE, phenylephrine] was tested, and the “whole-cell current at −100 mV” value (TRPC6 ion channel [1]; after adding 200 μM PE) was −90.0±15.0 pA and the “change of whole-cell current on application” value (TRPC6 ion channel [1]) was “nearly no currents changed”.
CC[N+](CC)(CC)CC [TEA] was tested, and the “effect on outward current” value (maxi-K ion channel [2]) was “decreased in a dose-dependent manner” and the “effect on outward current” value (maxi-K ion channel [3]) was “decreased in a dose-dependent manner”.
“endothelin-1 (CSCSSLMDKECVYFCHLDIIW; ends and bridges not checked; cysteine pairing not given here; UniProt P05305 53-73, looked up) [ET-1, a typical inducer of smooth muscle contraction]” was tested, and the “F340/380, accounting for ET-1-induced calcium increase” value [4] was 1.47±0.03.
With [La+3] [La^3+] the effect on current (TRPC6 ion channel [5]) was “completely decreased”.
C[N+](C)(C)CCOC(N)=O [CCh, carbachol] was tested, and the “whole-cell current at −100 mV” value (TRPC6 ion channel [1]; after adding 100 μM CCh) was −460±169.5 pA and the “change of whole-cell current on application” value (TRPC6 ion channel [1]) was “increased inward currents”.
